Measured values taken from patent US7420059B2, “HMG-CoA reductase inhibitors and method” (Bristol-Myers Squibb Company, priority 2003, dated 2008).

melting point: 184 to 186 °C
Compound: CC(C)c1nc2c(c(-c3ccc(F)cc3)c1/C=C/[C@@H](O)C[C@@H](O)CC(=O)O)CCCN2S(C)(=O)=O [Example 22, (E)-(3R,5S)-7-[4-(4-Fluorophenyl)-2-isopropyl-8-methanesulfonyl-5,6,7,8-tetrahydro-[1,8]naphthyridin-3-yl]-3,5-dihydroxyhept-6-enoic Acid]
